Several values for one entry are separate records, joined by “and”; a condition that tells them apart may be missing. Equal entries are not always repeated. Where two headings read alike, the source gives them in different places.
What was measured:
[1] = Equilibrium distribution coefficients in organic solvent/pH 7.4 systems, shake-flask method; type: physicochemical; conditions: for logD / logD at 24 h: read-out: log DappOctOH/pH7.4 (logD) (converted); for DappHex/pH7.4 ·10^2: value given as D×10^2
Description: The equilibrium distribution coefficients of HML were determined in the OctOH/pH 7.4 and Hex/pH 7.4 systems by the shake-flask method over a wide temperature range of 293.15–313.15 K. The distribution coefficient in the IPM/pH 7.4 system was obtained at 310.15 K. Before the experiment, the aqueous and organic phases were mutually pre-saturated by vigorous shaking for 24 h, equilibrated, and then carefully separated. The stock HML solutions were prepared in OctOH for the OctOH/pH 7.4 system and in pH 7.4 for both the Hex/pH 7.4 and IPM/pH 7.4 systems. The volumes of the organic and aqueous phases were selected according to the HML solubility in each solvent. The glass vials containing the two-phase system were equilibrated at constant temperature for 24 h. After this, the vials were allowed to stand for not less than 4 h, and the phases were carefully separated. The concentration of HML in each phase was measured using a UV-VIS spectrophotometer (Cary-50 Varian, Palo Alto, CA, USA; Software Version 3.00 (339)). Each experiment was carried out in three or more replicates. The standard deviation ranged from 2% to 4% of the mean. The distribution coefficients were calculated by Equation (1):(1) DappOrg/pH7.4=C2Org/pH7.4⋅V^pH7.4/Org/C2pH7.4/Org⋅V^Org/pH7.4 where DappOrg/pH7.4 is the distribution coefficient calculated using the compound concentrations in molar units, C2Org/pH7.4 and C2pH7.4/Org are the molar concentrations of the drug in the mutually saturated organic and aqueous phases, respectively, V^pH7.4/Org and V^Org/pH7.4 are the volumes of the mutually saturated buffer and organic phases, respectively. The ΔlogD parameters that characterize the drug’s hydrogen-bonding potential and reflect the impact of specific interactions on partition processes were calculated as follows:(2) ΔlogD^Oct/Hex=logDappOct/pH7.4−logDappHex/pH7.4 (3) ΔlogD^IPM/Hex=logDappIPM/pH7.4−logDappHex/pH7.4

Caco-2 monolayers = experiment: Literature permeability across Caco-2 monolayers; type: in vitro ADME; conditions: literature Caco-2 (ref 12) vs PP Papp

Compound: COc1ccc2c3c([nH]c2c1)C(C)=NCC3 [HML, Harmaline]
- logD ([1]; 1-octanol (OctOH)/buffer pH 7.4, pH 7.4, OctOH/pH 7.4, 310.15 K): 1.29
- logD ([1]; 1-octanol (OctOH)/buffer pH 7.4, pH 7.4, OctOH/pH 7.4, 313.15 K): 1.34
- decrease of distribution coefficient from OctOH/pH 7.4 to IPM/pH 7.4 system ([1]; 310.15 K): 78 fold
- DappHex/pH7.4 ·10^2 ([1]; Hex/pH 7.4, 293.15 K): 1.178 ± 0.024
- DappHex/pH7.4 ·10^2 ([1]; Hex/pH 7.4, 303.15 K): 1.470 ± 0.037
- DappHex/pH7.4 ·10^2 ([1]; Hex/pH 7.4, 308.15 K): 1.718 ± 0.035
- DappHex/pH7.4 ([1]; Hex/pH 7.4, 310.15 K, unscaled value in text): 0.022
- DappHex/pH7.4 ·10^2 ([1]; Hex/pH 7.4, 310.15 K): 2.197 ± 0.044
- DappHex/pH7.4 ·10^2 ([1]; Hex/pH 7.4, 313.15 K): 2.483 ± 0.050
- DappIPM/pH7.4 ([1]; IPM/pH 7.4, 310.15 K): 0.25 and 0.250 ± 0.010
- logD at 24 h ([1]; OctOH (octanol)/buffer pH 7.4, pH 7.4, OctOH/pH 7.4, 293.15 K): 0.973
- logD at 24 h ([1]; OctOH (octanol)/buffer pH 7.4, pH 7.4, OctOH/pH 7.4, 298.15 K): 1.02
- logD at 24 h ([1]; OctOH (octanol)/buffer pH 7.4, pH 7.4, OctOH/pH 7.4, 303.15 K): 1.07
- logD at 24 h ([1]; OctOH (octanol)/buffer pH 7.4, pH 7.4, OctOH/pH 7.4, 308.15 K): 1.17
- DappOctOH/pH7.4 ([1]; OctOH/pH 7.4, 293.15 K): 9.399 ± 0.101
- DappOctOH/pH7.4 ([1]; OctOH/pH 7.4, 298.15 K): 10.376 ± 0.208
- DappOctOH/pH7.4 ([1]; OctOH/pH 7.4, 303.15 K): 11.653 ± 0.233
- DappOctOH/pH7.4 ([1]; OctOH/pH 7.4, 308.15 K): 14.632 ± 0.293
- DappOctOH/pH7.4 ([1]; OctOH/pH 7.4, 310.15 K): 19.492 and 19.49 and 19.492 ± 0.389
- DappOctOH/pH7.4 ([1]; OctOH/pH 7.4, 313.15 K): 22.138 ± 0.443
- maximum difference between Caco-2 model permeability and PermeaPad result (Caco-2 monolayers): ≤ 1.4 fold
- log partition 1-octanol / buffer pH 7.4 (shake-flask; pH 7.4, 293.15): 0.973 log10
- log partition n-hexane / buffer pH 7.4 (shake-flask; pH 7.4, 293.15): −1.929 log10
- log partition 1-octanol / buffer pH 7.4 (shake-flask; pH 7.4, 298.15): 1.016 log10
- log partition n-hexane / buffer pH 7.4 (shake-flask; pH 7.4, 298.15): −1.899 log10
- log partition 1-octanol / buffer pH 7.4 (shake-flask; pH 7.4, 303.15): 1.066 log10
- log partition n-hexane / buffer pH 7.4 (shake-flask; pH 7.4, 303.15): −1.833 log10
- log partition 1-octanol / buffer pH 7.4 (shake-flask; pH 7.4, 308.15): 1.165 log10
- log partition n-hexane / buffer pH 7.4 (shake-flask; pH 7.4, 308.15): −1.765 log10
- log partition 1-octanol / buffer pH 7.4 (shake-flask; pH 7.4, 310.15): 1.290 log10
- log partition isopropyl myristate / buffer pH 7.4 (shake-flask; pH 7.4, 310.15): −0.602 log10
- log partition n-hexane / buffer pH 7.4 (shake-flask; pH 7.4, 310.15): −1.658 log10
- log partition 1-octanol / buffer pH 7.4 (shake-flask; pH 7.4, 313.15): 1.345 log10
- log partition n-hexane / buffer pH 7.4 (shake-flask; pH 7.4, 313.15): −1.605 log10
